Data taken from US20230165875A1, “METHYLTHIONINIUM COMPOUNDS FOR USE IN THE TREATMENT OF COVID-19” (priority 2020, published 2023).

Tests used:
SARS-CoV2 = assay: Virucidal activity / neutralising viral toxicity in Vero-E6 cell assay in the dark (Cagno et al 2020 data); assay type: cell-based
[1] = parameters: species or system rats; conditions: rat, in vivo, po, 10 mg/kg
Protocol: A further whole body autoradiography study rats compared the distribution of LMT-associated radioactivity in brain, lung and heart following oral dosing at 10 mg/kg. […] The ratio specific for LMT in lung is therefore unknown. It is possible to relate plasma levels determined in a large clinical population (Schelter et al., 2019) to expected tissue levels of LMT at steady state across a wide dosing range of 8-250 mg/day. However, this depends critically on the tissue:plasma ratio for specifically affected tissues such a lung.

mitochondrial function = conditions: in vitro and in vivo; cited from earlier work
[2] = Oxygen saturation and metHb in clinical trial patients after LMT dosing; assay type: in vivo, human
Protocol: The present inventors have used data available for patients participating in clinical trials to determine whether LMT enhances oxygen saturation of blood. Data were available for 18 subjects with oxygen saturation <94% at baseline (lower limit of normal range is 95%). Oxygen saturation levels were compared pre-dose and after 4 hrs in the clinic following administration of a single doses of LMT at 4 mg and ˜100mg (mean of 75, 100, 125 mg; FIG. 8).
In order to understand this effect further the inventors investigated whether the low oxygen saturation in these patients is due to elevation in metHb levels. There was no difference in metHb levels at baseline between subjects with low SpO2 and those with SpO2 levels in the normal range.

[3] = AD patients; cited from earlier work
[4] = Clinical safety / cardiotoxicity of LMTM; assay type: in vivo, human
Protocol: Therefore, doses up to 250 mg/day could be given safely for treatment of COVID-19 patients.

SARS-CoV-2 = conditions: Vero cells, 48 hrs; read-out: IC50, SARS-CoV-2 antiviral activity (viral replication); cited from earlier work

## CN(C)c1ccc2c(c1)Sc1cc(N(C)C)ccc1N2 [LMT, hydromethylthionine]
SARS-CoV2; assuming comparability of the assays
  potency as SARS-CoV-2 antiviral relative to hydroxychloroquine and remdesivir: approximately 23 fold
[1]
  ratio of heart and lung to brain (LMT-associated radioactivity, total MT): 2:1

## CN(C)c1ccc2c(c1)Sc1cc(N(C)C)ccc1N2.CS(=O)(=O)O.CS(=O)(=O)O [LMTM, N,N,N′,N′-tetramethyl-10H-phenothiazine-3,7-diaminium bis(hydromethanesulfonate)]
Mitochondrial function
  mitochondrial function: enhance mitochondrial function
[2]; higher doses, over a period of time
  metHb levels: systematically increases metHb levels
[2]; subjects with oxygen saturation <94% at baseline, 4 hours after single dose of LMT at 4 mg and ~100 mg
  oxygen saturation of blood: significantly increased oxygen saturation
[3]
  minimum effective dose (anti-dementia effects): 8 mg/day
  optimally effective dose (anti-dementia effects): 16 mg/day
[4]; 8-250 mg/day, three Phase 3 trials in over 2,000 patients with dementia
  safety across doses: well established
[4]; human, in vivo
  cardiotoxicity: does not have the cardiotoxicity

## CCN(CCO)CCCC(C)Nc1ccnc2cc(Cl)ccc12 (centres unmarked) [hydroxychloroquine]
SARS-CoV-2
  IC50: 720 nM

## methylthionine [MT moiety]
SARS-CoV2; Vero cell assay, 20 hrs, calculated from Cagno et al. data
  IC50: 32 nM
